Laboratory results: patent US20100137391A1, “Histamine H3 Agonist for use as Therapeutic Agent for a Lipid/Glucose Metabolic Disorder” (priority 2005, published 2010)

What was measured:
wild type mice [1] = assay: Measurement of amount of food intake (and body weight), wild type mice; assay type: in vivo
Description: (§1) Histamine H3 receptor knockout mice (hereinafter referred to as “H3RKO mice”) were produced by the method of Takahashi et al. (J. Clin. Invest, Vol. 110, p. 1791, 2002). The obtained knockout mice were subjected to back crossing with C57BL/6J over 5 generations. Six- to nine-month-old male litters were used in an acute drug administration test. On the other hand, 18- to 20-month-old mice whose parents were H3RKO mice or wild type mice (N5 of C57BL/6J) were used in a chronic drug administration test.
(§2) All mice were individually bred at 25° C., and light and dark were controlled every 12 hours. During breeding, water and feed were freely given to the mice. As such feed, CE2 (CLEA Japan, Inc.) was given to thin mice, and medium high fat diet (Oriental Bio Service Co., Ltd.) was given to DIO mice.
(§3) The concentration of each compound was set at 5 ml/kg.
(§4) The amount of food intake was measured based on the weight of feed at 19:00 and 23:00.

H3RKO mice [2] = assay: Measurement of amount of food intake (and body weight), H3RKO mice; assay type: in vivo
Description: as §1, §2, §3, §4

wild type mice [3] = system: wild type mice
Description: as §1, §2, §3
(§5) Mice were divided into groups, depending on mean body weight and the amount of daily food intake before administration of the compound. The body weight and the amount of food intake were measured every day.
(§6) In the test using Thioperamide, mice were divided into 4 groups: a group in which a solvent was administered to C57BL/6J DiO mice at 9:00; a group in which 10 mpk Thioperamide was administered thereto at 9:00; a group in which a solvent was administered to C57BL/6J DiO mice at 17:00; and a group in which 10 mpk Thioperamide was administered thereto at 17:00. […] On the 10th day after the administration, such mice were left in a starvation state for 2 hours. Thereafter, blood was collected from the orbit of each mouse, and the glucose and insulin levels were measured.
(§7) A change in body weight was calculated by dividing a decrease in body weight by the body weight on day 0 at initiation of the test, and the calculated value was expressed as a percentage. The degree of obesity was measured using an NMR analyzer (Minispec; Bruker).

H3RKO mice [4] = assay: Anti-obesity test with Imetit, H3RKO mice; assay type: in vivo
Description: as §1, §2, §3, §5, §6, §7

C57BL/6J mice = assay: Measurement of energy consumption (indirect calorimetry); assay type: in vivo; settings: Imetit 5 mpk and 20 mpk vs vehicle
Experimental: Energy consumption was measured using Indirect calorimetry (Columbus Instrument). That is to say, C57BL/6J mice were acclimatized in a test chamber overnight, and VO2 (oxygen consumption) and VCO2 […] were then measured for 1 minute every 10 minutes. Sample air was collected every 10 minutes. RQ (respiratory quotient) was calculated by dividing […]. The test was carried out from 9:00 to 17:00. During the test, mice were allowed to freely ingest feed and water.

C57BL/6J DiO mice = assay: Anti-obesity test with Thioperamide; assay type: in vivo; settings: 10 mpk Thioperamide at 9:00 or 17:00; FIG. 6
Experimental: as §2, §3, §5, §6, §7

[5] = Wild type, 10th day after administration, 2 hours starvation, blood
[6] = Wild type, Imetit twice a day, NMR analyzer
[7] = H3RKO, 10th day after administration, 2 hours starvation, blood
[8] = H3RKO, Imetit twice a day, NMR analyzer

SMILES: N=C(N)SCCc1c[nH]cn1 [Imetit, carbamimidothioic acid 2-(1H-imidazol-4-yl)ethyl ester]
- change in body weight (wild type mice [1]; FIG. 3): decreased depending on the number of doses
- amount of food intake (wild type mice [1]; oral administration, vs solvent control mice, FIG. 1): lower than that of control mice
- change in body weight (H3RKO mice [2]; FIG. 4): such a change in body weight was not observed
- amount of food intake (H3RKO mice [2]; oral administration, vs solvent control mice, FIG. 2): such a decrease in the amount of food intake was not observed
- abnormal glucose tolerance (wild type mice [3]): improved
- Glucose (wild type mice [3]; [5]): 164.1 ± 6.4 mg/dL
- Insulin (wild type mice [3]; [5]): 4.7 ± 0.8 ng/mL
- Fat (%) (wild type mice [3]; [6]): 39.2 ± 2.0 %
- Lean body mass (%) (wild type mice [3]; [6]): 58.3 ± 1.6 %
- insulin concentration in blood (wild type mice [3]; together with fat-decreasing effect): decreased
- body weight-decreasing effect (H3RKO mice [4]; H3RKO mice, Imetit twice a day): such effect was not observed in H3RKO mice
- Glucose (H3RKO mice [4]; [7]): 166.7 ± 10.5 mg/dL
- Insulin (H3RKO mice [4]; [7]): 4.7 ± 0.9 ng/mL
- Fat (%) (H3RKO mice [4]; [8]): 46.3 ± 2.0%
- Lean body mass (%) (H3RKO mice [4]; [8]): 52.7 ± 1.4%
- VO2 (oxygen consumption) (C57BL/6J mice; FIG. 8, 11): increases
- VCO2 (C57BL/6J mice; FIG. 9, 11): increases
- RQ (respiratory quotient) (C57BL/6J mice; FIG. 10, 11): decrease

SMILES: S=C(NC1CCCCC1)N1CCC(c2cnc[nH]2)CC1 [Thioperamide]
- body weight of fat mice (C57BL/6J DiO mice): tendency that the body weight of fat mice was increased
